For 13 compounds, IC50 results are on record in patent publication US9850283B2, “Macrocyclic inhibitors of the PD-1/PD-L1 and CD80(B7-1)/PD-L1 protein/protein interactions” (BRISTOL-MYERS SQUIBB COMPANY, priority 2013, dated 2017).

Test [1] deals with T1, Human PD-L1/PD-1 (Homo sapiens, UniProt Q9NZQ7).
T1 construct: made in house; host or cells: HEK293T
As to the kind of experiment: HTRF PD-1-Ig/PD-L1-His binding assay (human PD-L1). The following applies: cluster symbol; read-out: HTRF IC50 cluster. A digest of the protocol:
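Soluble Fc-fused PD-1 and His-tagged PD-L1 (truncated before the transmembrane region) were combined in dPBS with 0.1% (w/v) BSA and 0.05% (v/v) Tween-20. Binding was read by HTRF using europium cryptate anti-Ig antibody (1 nM final) and APC anti-His antibody (20 nM final).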

Test [2] has as its target T2, LK35.2-hPD-L1 cells / PE-labeled PD-1-Ig (Homo sapiens, UniProt Q9NZQ7).
T2 construct: expressed in transfected cells; host or cells: LK35.2 mouse B cell line
The test is described as follows: LK35.2-hPD-L1 cell binding high-content screening assay. The class given is cell-based. The following applies: cluster symbol, read-out: CBA IC50 cluster. A digest of the protocol: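 Compound effect on PD-1/PD-L1 binding is measured by imaging cell-associated phycoerythrin signal. Human PD-1-Ig (PE on Ig tag, 1 nM final) is applied with compound to a murine B cell line overexpressing human PD-L1 for 1 h at 37 °C in serum-containing RPMI.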

Where [3] appears, read: cell line of CBA not given (LK35.2-hPD-L1 or 293T-hPD-L1).
Setting [4] is: cell binding assay, cell line not given.

pIC50: −log10 of the molar value. Like-named read-outs stand apart in the source and are kept apart here. Positions of bridges follow the written chain, without caps; N, C: chain ends. Non-standard residues stand in square brackets, D forms with d. Residues, ends and D or L forms follow the SMILES beside them. ξ: configuration not given here. *: point of attachment. Pro(trans-4-cHex) = O=C(O)[C@@H]1C[C@@H](C2CCCCC2)CN1; Phe(3,4-(OMe)2) = COc1ccc(C[C@H](N)C(=O)O)cc1OC; Pro(trans-4-F) = O=C(O)[C@@H]1C[C@@H](F)CN1; Phe(3-OMe) = COc1cccc(C[C@H](N)C(=O)O)c1; Phe(3-F) = N[C@@H](Cc1cccc(F)c1)C(=O)O; dDopa = N[C@H](Cc1ccc(O)c(O)c1)C(=O)O; Bta = N[C@@H](Cc1csc2ccccc12)C(=O)O; Cyclobutanecarbonyl = O=C(C1CCC1)*; Hyp = O=C(O)[C@@H]1C[C@@H](O)CN1; NMeF = CN[C@@H](Cc1ccccc1)C(=O)O; NMeNle = CCCC[C@H](NC)C(=O)O; NMeM = CN[C@@H](CCSC)C(=O)O; NMeA = CN[C@@H](C)C(=O)O; Orn = NCCC[C@H](N)C(=O)O; Dab = NCC[C@H](N)C(=O)O; Dap = NC[C@H](N)C(=O)O; ξC = NC(CS)C(=O)O; Sar = CNCC(=O)O A value given as a limit tells only on which side of the number the result lay.

T2 sequence (Q9NZQ7 19-290): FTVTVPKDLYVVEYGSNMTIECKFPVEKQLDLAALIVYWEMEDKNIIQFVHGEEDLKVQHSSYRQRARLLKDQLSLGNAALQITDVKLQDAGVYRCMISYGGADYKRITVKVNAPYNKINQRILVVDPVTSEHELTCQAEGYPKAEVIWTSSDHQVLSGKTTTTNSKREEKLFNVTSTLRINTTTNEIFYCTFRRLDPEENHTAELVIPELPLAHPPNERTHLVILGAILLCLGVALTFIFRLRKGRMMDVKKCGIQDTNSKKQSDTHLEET
T1 sequence (Q9NZQ7 with tags, fused parts or gaps): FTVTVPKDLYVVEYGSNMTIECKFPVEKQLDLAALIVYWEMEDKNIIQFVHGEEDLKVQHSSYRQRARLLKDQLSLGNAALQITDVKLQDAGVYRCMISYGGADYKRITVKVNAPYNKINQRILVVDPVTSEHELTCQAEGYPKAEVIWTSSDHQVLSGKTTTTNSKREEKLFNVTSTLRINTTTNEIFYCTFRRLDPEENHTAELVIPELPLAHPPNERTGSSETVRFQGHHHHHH

In the case of `CCCC[C@H]1C(=O)N[C@@H](CCCNC(=N)N)C(=O)N[C@H](C(=O)NCC(N)=O)CSCC(=O)N[C@@H](Cc2ccccc2)C(=O)N(C)[C@@H](C)C(=O)N[C@@H](CC(N)=O)C(=O)N2CCC[C@H]2C(=O)N[C@@H](Cc2cnc[nH]2)C(=O)N[C@@H](CC(C)C)C(=O)N(C)CC(=O)N[C@@H](Cc2c[nH]c3ccccc23)C(=O)N[C@@H](CO)C(=O)N[C@@H](Cc2c[nH]c3ccccc23)C(=O)N[C@@H](CNC(=O)C2CCC2)C(=O)N1C` [Example 1011] ({CH2CO}-F[NMeA]NPHL[Sar]WSW[Dap](Cyclobutanecarbonyl)[NMeNle]RCG-NH2; thioether N-14), the pIC50 is less than 7.52 in test [1] and less than 7.13 in test [2] (setting [3]).
For the compound `CCCC[C@H]1C(=O)N(C)CC(=O)N[C@@H](CC(=O)O)C(=O)N[C@@H](C(C)C)C(=O)N(C)[C@@H](Cc2ccccc2)C(=O)N[C@@H](Cc2ccc(O)cc2)C(=O)N(C)CC(=O)N[C@@H](Cc2c[nH]c3ccccc23)C(=O)N[C@@H](Cc2ccc(OC)c(OC)c2)C(=O)N[C@@H](CC(C)C)C(=O)N[C@H](C(=O)NCC(N)=O)CSCC(=O)N[C@@H](Cc2ccccc2)C(=O)N(C)[C@@H](Cc2ccccc2)C(=O)N1C` [Example 3541] ({CH2CO}-F[NMeF][NMeNle][Sar]DV[NMeF]Y[Sar]W[Phe(3,4-(OMe)2)]LCG-NH2; thioether N-13), the values for the pIC50 in test [1] and in test [2] (setting [4]) were less than 7.52 and less than 7.13, respectively.
On to `CCCCC1C(=O)N[C@@H](CCCNC(=N)N)C(=O)N[C@@H](CC(=O)O)C(=O)N[C@@H](C(C)C)C(=O)N(C)[C@@H](Cc2ccccc2)C(=O)N[C@@H](Cc2ccc(O)cc2)C(=O)N(C)CC(=O)N[C@@H](Cc2c[nH]c3ccccc23)C(=O)N[C@@H](Cc2ccc(O)cc2)C(=O)N[C@@H](CC(C)C)C(=O)N[C@H](C(=O)NCC(N)=O)CSCC(=O)N[C@@H](Cc2ccccc2)C(=O)N(C)[C@@H](Cc2ccccc2)C(=O)N1C` (some centres unmarked) [Example 3510] (HELM PEPTIDE1{[O=C(C[*:3])[*:2]].F.[meF].[CCCCC(C(=O)[*:2])N(C)[*:1]].R.D.V.[meF].Y.[Sar].W.Y.L.C.G.[am]}$PEPTIDE1,PEPTIDE1,1:R3-14:R3$$$V2.0), for which the negative logarithm of the IC50 (pIC50) in test [1] was less than 7.52; in test [2] (setting [4]), less than 7.13.
On to `CCCC[C@H]1C(=O)N(C)CC(=O)N[C@@H](CC(=O)O)C(=O)N[C@@H](C(C)C)C(=O)N(C)[C@@H](Cc2ccccc2)C(=O)N[C@@H](Cc2ccc(O)cc2)C(=O)N(C)CC(=O)N[C@@H](Cc2c[nH]c3ccccc23)C(=O)N[C@H](Cc2ccc(O)c(O)c2)C(=O)N[C@@H](CC(C)C)C(=O)N[C@H](C(=O)NCC(N)=O)CSCC(=O)N[C@@H](Cc2ccccc2)C(=O)N(C)[C@@H](Cc2ccccc2)C(=O)N1C` [Example 3579] ({CH2CO}-F[NMeF][NMeNle][Sar]DV[NMeF]Y[Sar]W[dDopa]LCG-NH2; thioether N-13), for which the pIC50 in test [1] is 7.52 to 8.17; in test [2] (setting [4]), 8.33 to 9.80.
Turning to `CCCC[C@H]1C(=O)N(C)[C@@H](CCCC)C(=O)N[C@@H](CCCN)C(=O)N[C@H](C(=O)NCC(N)=O)CSCC(=O)N[C@@H](Cc2ccc(O)cc2)C(=O)N(C)[C@@H](C)C(=O)N[C@@H](CC(N)=O)C(=O)N2CCC[C@H]2C(=O)N[C@@H](CN)C(=O)N[C@@H](CC(C)C)C(=O)N2C[C@H](F)C[C@H]2C(=O)N[C@@H](Cc2c[nH]c3ccccc23)C(=O)N[C@@H](CO)C(=O)N[C@@H](Cc2c[nH]c3ccccc23)C(=O)N1C` [Example 13003] ({CH2CO}-Y[NMeA]NP[Dap]L[Pro(trans-4-F)]WSW[NMeNle][NMeNle][Orn]CG-NH2; thioether N-14), the pIC50 was 8.17 to 9.41 in test [1] and 8.33 to 9.80 in test [2] (setting [4]).
Turning to `CCCC[C@H]1C(=O)N(C)[C@@H](CCCC)C(=O)N[C@@H](CCCNC(=N)N)C(=O)N[C@H](C(=O)NCC(N)=O)CSCC(=O)N[C@@H](Cc2ccc(OC)c(OC)c2)C(=O)N(C)[C@@H](C)C(=O)N[C@@H](CC(N)=O)C(=O)N2CCC[C@H]2C(=O)N[C@@H](CN)C(=O)N[C@@H](CC(C)C)C(=O)N2C[C@H](O)C[C@H]2C(=O)N[C@@H](Cc2c[nH]c3ccccc23)C(=O)N[C@@H](CO)C(=O)N[C@@H](Cc2c[nH]c3ccccc23)C(=O)N1C` [Example 7040] ({CH2CO}-[Phe(3,4-(OMe)2)][NMeA]NP[Dap]L[Hyp]WSW[NMeNle][NMeNle]RCG-NH2; thioether N-14), the figures for the pIC50 in test [1] and in test [2] (setting [4]) were 8.17 to 9.41 and 7.14 to 8.32, respectively.
With `CCCC[C@H]1C(=O)N(C)[C@@H](CCCC)C(=O)N[C@@H](CCCN)C(=O)N[C@H](C(=O)NCC(N)=O)CSCC(=O)N[C@@H](Cc2ccc(O)cc2)C(=O)N(C)[C@@H](C)C(=O)N[C@@H](CC(N)=O)C(=O)N2CCC[C@H]2C(=O)N[C@@H](CN)C(=O)N[C@@H](CC(C)C)C(=O)N2C[C@H](C3CCCCC3)C[C@H]2C(=O)N[C@@H](Cc2c[nH]c3ccccc23)C(=O)N[C@@H](CO)C(=O)N[C@@H](Cc2c[nH]c3ccccc23)C(=O)N1C` [Example 14007] ({CH2CO}-Y[NMeA]NP[Dap]L[Pro(trans-4-cHex)]WSW[NMeNle][NMeNle][Orn]CG-NH2; thioether N-14), the pIC50 is 8.17 to 9.41 in test [1] and 8.33 to 9.80 in test [2] (setting [4]).
With `CCCC[C@H]1C(=O)N(C)CC(=O)N[C@@H](CC(=O)O)C(=O)N[C@@H](C(C)C)C(=O)N(C)[C@@H](Cc2ccccc2)C(=O)N[C@@H](Cc2ccc(O)cc2)C(=O)N(C)CC(=O)N[C@@H](Cc2csc3ccccc23)C(=O)N[C@@H](Cc2ccc(O)cc2)C(=O)N[C@@H](CC(C)C)C(=O)N[C@H](C(=O)NCC(N)=O)CSCC(=O)N[C@@H](Cc2cccc(F)c2)C(=O)N(C)[C@@H](Cc2ccccc2)C(=O)N1C` [Example 3117] ({CH2CO}-[Phe(3-F)][NMeF][NMeNle][Sar]DV[NMeF]Y[Sar][Bta]YLCG-NH2; thioether N-13), the pIC50 in test [1] was 7.52 to 8.17; in test [2] (setting [3]), 7.14 to 8.32.
Taken in the same sequence, the figures for `CCCC[C@H]1C(=O)N(C)[C@@H](CCCC)C(=O)N[C@@H](CCCNC(=N)N)C(=O)N[C@H](C(=O)NCC(N)=O)CSCC(=O)N[C@@H](Cc2cccc(OC)c2)C(=O)N(C)[C@@H](C)C(=O)N[C@@H](CC(N)=O)C(=O)N2CCC[C@H]2C(=O)N[C@@H](Cc2cnc[nH]2)C(=O)N[C@@H](CC(C)C)C(=O)N(C)CC(=O)N[C@@H](Cc2c[nH]c3ccccc23)C(=O)N[C@@H](CO)C(=O)N[C@@H](Cc2c[nH]c3ccccc23)C(=O)N1C` [Example 1098] ({CH2CO}-[Phe(3-OMe)][NMeA]NPHL[Sar]WSW[NMeNle][NMeNle]RCG-NH2; thioether N-14) were 7.52 to 8.17 and 7.14 to 8.32.
Consider `CCCC[C@H]1C(=O)N(C)[C@@H](CCCC)C(=O)N[C@@H](CCN)C(=O)N[C@H](C(=O)NCC(N)=O)CSCC(=O)N[C@@H](Cc2ccc(O)cc2)C(=O)N(C)[C@@H](C)C(=O)N[C@@H](CC(N)=O)C(=O)N2CCC[C@H]2C(=O)N[C@@H](Cc2cnc[nH]2)C(=O)N[C@@H](CCC(N)=O)C(=O)N2C[C@H](O)C[C@H]2C(=O)N[C@@H](Cc2csc3ccccc23)C(=O)N[C@@H](CCN)C(=O)N[C@@H](Cc2c[nH]c3ccccc23)C(=O)N1C` [Example 5056] ({CH2CO}-Y[NMeA]NPHQ[Hyp][Bta][Dab]W[NMeNle][NMeNle][Dab]CG-NH2; thioether N-14), for which the pIC50 in test [1] is less than 7.52; in test [2] (setting [4]), less than 7.13.
The corresponding values for `CCCC[C@H]1C(=O)N(C)[C@@H](CCSC)C(=O)N[C@@H](CCCNC(=N)N)C(=O)NC(C(=O)NCC(N)=O)CSCC(=O)N[C@@H](Cc2ccc(O)cc2)C(=O)N(C)[C@@H](C)C(=O)N[C@@H](CC(N)=O)C(=O)N2CCC[C@H]2C(=O)N[C@@H](Cc2cnc[nH]2)C(=O)N[C@@H](CC(C)C)C(=O)N2CCC[C@H]2C(=O)N[C@@H](Cc2c[nH]c3ccccc23)C(=O)N[C@@H](CO)C(=O)N[C@@H](Cc2csc3ccccc23)C(=O)N1C` (some centres unmarked) [Example 9022] ({CH2CO}-Y[NMeA]NPHLPWS[Bta][NMeNle][NMeM]R[ξC]G-NH2; thioether N-14) are 8.17 to 9.41 and 8.33 to 9.80.
For `CCCC[C@H]1C(=O)N(C)CC(=O)N[C@@H](CC(=O)O)C(=O)N[C@@H](C(C)C)C(=O)N(C)[C@@H](Cc2ccc(O)cc2)C(=O)N[C@@H](Cc2ccc(O)cc2)C(=O)N(C)CC(=O)N[C@@H](Cc2c[nH]c3ccccc23)C(=O)N[C@@H](Cc2ccc(O)cc2)C(=O)N[C@@H](CC(C)C)C(=O)N[C@H](C(=O)NCC(N)=O)CSCC(=O)N[C@@H](Cc2ccccc2)C(=O)N(C)[C@@H](Cc2ccccc2)C(=O)N1C` [Example 3168] (HELM PEPTIDE1{[O=C(C[*:3])[*:2]].F.[meF].[CCCC[C@@H](C(=O)[*:2])N(C)[*:1]].[Sar].D.V.[meY].Y.[Sar].W.Y.L.C.G.[am]}$PEPTIDE1,PEPTIDE1,1:R3-14:R3$$$V2.0), the pIC50 in test [1] was less than 7.52; in test [2] (setting [3]), less than 7.13.
As for `CCCC[C@H]1C(=O)N(C)CC(=O)N[C@@H](CC(=O)O)C(=O)N[C@@H](C(C)C)C(=O)N(C)[C@@H](Cc2ccccc2)C(=O)N[C@@H](Cc2ccc(O)cc2)C(=O)N(C)CC(=O)N[C@@H](C)C(=O)N[C@@H](Cc2ccc(O)cc2)C(=O)N[C@@H](CC(C)C)C(=O)N[C@@H](C(=O)NCC(N)=O)CSCC(=O)N[C@@H](Cc2ccccc2)C(=O)N(C)[C@@H](Cc2ccccc2)C(=O)N1C` [Example 1001] (HELM PEPTIDE1{[O=C(C[*:3])[*:2]].F.[meF].[CCCC[C@@H](C(=O)[*:2])N(C)[*:1]].[Sar].D.V.[meF].Y.[Sar].A.Y.L.[dC].G.[am]}$PEPTIDE1,PEPTIDE1,1:R3-14:R3$$$V2.0), the pIC50 in test [1] was less than 7.52; in test [2] (setting [3]) it was less than 7.13.
